Results taken from patent US6165770A, “Alkaline stable amylase from Thermoalcalibacter” (Novo Nordisk A/S, priority 1996, dated 2000).
Structures can show the parent of a compound that is named as a salt.

Target: T1, α-amylase from Thermoalcalibacter bogoriae (Anaerobranca gottschalkii, UniProt Q5I942)
T1 sequence (Q5I942 24-532): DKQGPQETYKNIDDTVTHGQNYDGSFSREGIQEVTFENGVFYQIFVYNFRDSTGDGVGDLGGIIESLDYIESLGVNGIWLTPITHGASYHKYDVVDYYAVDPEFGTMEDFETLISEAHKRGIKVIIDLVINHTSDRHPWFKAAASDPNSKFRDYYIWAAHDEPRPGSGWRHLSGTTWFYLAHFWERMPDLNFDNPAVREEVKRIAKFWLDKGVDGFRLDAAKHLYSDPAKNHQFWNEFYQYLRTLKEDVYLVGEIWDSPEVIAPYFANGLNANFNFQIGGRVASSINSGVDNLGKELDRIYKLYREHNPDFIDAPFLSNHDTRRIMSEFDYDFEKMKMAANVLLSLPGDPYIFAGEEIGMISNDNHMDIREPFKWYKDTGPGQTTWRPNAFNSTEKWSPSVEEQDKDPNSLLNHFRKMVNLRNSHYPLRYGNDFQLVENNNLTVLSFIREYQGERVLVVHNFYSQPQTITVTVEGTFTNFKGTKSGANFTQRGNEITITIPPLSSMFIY
Assay: Effect of metal ions and chemical reagents on amylase activity
Assay type: biochemical
Protocol: The effect of metal ions on the activity of the amylase of the present invention was examined by pre-incubating the enzyme together with metal ions for 30 min. at 65° C., pH 8.0 in a substrate solution containing (wt/vol) soluble starch (0.5%). Subsequently an enzyme assay was performed at 65° C. for 30 min in order to determine the residual activity of the amylase. For further details see working example herein (vide infra) and FIG. 4.
The amylase activity was measured at pH 8.0 -higher pH would interfere with metal ion solutions- and 65° C. in presence of various metal ions at 1 mM, 2 mM and 5 mM concentration and in presence of some chemical reagents (FIG. 4).

[1] = pH 8.0, 65° C., 1 mM, 2 mM and 5 mM

Compound | effect of metal ions on amylase activity [1] | further results
[Ca+2] [Ca^2+] | not or only slightly inhibited | –
[Co+2] [Co^2+] | not or only slightly inhibited | –
[Cr+6] [Cr^6+] | Strong inhibition | –
[Cu+2] [Cu^2+] | Strong inhibition | –
OC(CS)C(O)CS (stereo not drawn) [DTT] | – | effect of chemical reagents on amylase activity at 5 mM (pH 8.0, 65° C.): totally inhibited
O=C(O)CN(CCN(CC(=O)O)CC(=O)O)CC(=O)O [EDTA] | – | effect of metal ions on amylase activity (pH 8): not or only slightly inhibited
[Fe+2] [Fe^2+] | Strong inhibition | –
N=C(N)N [Guanidine-HCl] | – | effect of chemical reagents on amylase activity at 5 mM (pH 8.0, 65° C.): stimulatory effect
[Mg+2] [Mg^2+] | Moderate inhibition | –
[Mn+2] [Mn^2+] | moderate stimulation | –
[Ni+2] [Ni^2+] | Moderate inhibition | –
NCCc1ccc(S(=O)(=O)F)cc1 [Pefabloc SC] | – | effect of chemical reagents on amylase activity at 5 mM (pH 8.0, 65° C.): did not interfer
CCCCCCCCCCCCOS(=O)(=O)O [SDS] | – | effect of chemical reagents on amylase activity at 5 mM (pH 8.0, 65° C.): totally inhibited
[V+4] [V^4+] | Strong inhibition | –
[Zn+2] [Zn^2+] | Moderate inhibition | –
